Data: article PMC6405930, “Conservation of the Amyloid Interactome Across Diverse Fibrillar Structures” (Scientific Reports, 2019)

Legend:
[1] = target: T1, C-36 fibrils (Homo sapiens, UniProt P01009); experiment: Fibril incubation with CSF, quantitative MS/MS of bound proteins; format: binding; settings: 4:1 w/w CSF protein:fibril
T1 construct: the 36 residue C-terminal fragment of α1-antitrypsin (C-36)
Procedure: (§1) Plasma and CSF solutions were centrifuged (40,000 g, 20 min) to remove any aggregates. The protein concentration was determined using 280 nm absorbance assuming 1 Abs = 1 mg/mL. […] Control samples (without fibril material) were prepared similarly. All samples were incubated at room temperature for one hour under gentle agitation. Fibrils and fibril-bound proteins were pelleted by centrifugation at 17,000 g for 30 minutes. The supernatant (175 μL) was removed and the aggregate was re-suspended in 175 μL PBS and pelleted again before further preparation for gel analysis and spin-filter assisted digest for quantitative MS/MS.
(§2) The fibril-protein pellets were transferred to spin-filters (0.22 μm), washed twice in PBS (100 μL) and once in 1 M NaCl (100 μL). The fibrils and fibril-bound proteins were dissolved by one-hour incubation in 100 μL 6 M guanidinium chloride followed by elution from the spin-filter. The eluted proteins were loaded onto a 3 kDa MWCO filter unit for filter-assisted unfolding, reduction, alkylation, and trypsin digestion. In brief, samples were washed twice in 8 M urea, once in 8 M urea with 50 mM DTT, once in 8 M urea with 50 mM iodoaceteamide, and twice in 8 M Urea. The filter units were dried by centrifugation (14,000 g in 30 minutes) after every addition. Trypsin digestion was carried out with 0.25 μg sequencing grade trypsin from Sigma Aldrich in 50 mM ammonium bicarbonate overnight at 37 °C. The tryptic peptides were collected by centrifugation, acidified with TFA (0.1%) and micro-purified using POROS R2 column material (Applied Biosystems) packed in P200 pipette tips (Sarstedt).
(§3) LC-MS/MS analyses were performed on an EASY-nLC II system (Thermo Fisher Scientific) connected to a TripleTOF 5600+ mass spectrometer (Sciex) equipped with a NanoSpray III source (Sciex) and operated under Analyst TF 1.6.0 control.
(§4) The micro-purified tryptic peptides were dissolved in 0.1% formic acid, injected and trapped on an in-house packed trap column (2 cm × 100 μm I.D) with RP ReproSil-Pur C18-AQ 3 μm resin (Dr. Maisch GmbH). Peptides were eluted from the trap column and separated on a 15 cm analytical column (75 μm i.d.) packed in-house in a pulled emitter with RP ReproSil-Pur C18-AQ 3 μm resin (Dr. Maisch GmbH). Elution from the analytical column was performed with a linear gradient from 5% to 35% phase B (90% acetonitrile with 0.1% formic acid) over 20 min for protein identification and 50 min for quantitative analysis, respectively.
(§5) All samples were analysed three times, yielding nine MS/MS experiments for each fibril for both plasma and CSF. For the area-based extracted ion chromatogram (XIC) quantification, the acquisition method was set up as an information-dependent acquisition (IDA) experiment collecting up to 25 MS/MS spectra in each 1.6 sec cycle using an exclusion window of 6 sec.
(§6) XIC quantification was based on the average ion intensity of the three most abundant peptides for each protein. Only proteins quantified in at least four out of nine MS/MS experiments per fibril were included in the quantification. The total ion scores were visualized after grouping the proteins according to function (Figure S11).
(§7) For each MS/MS experiment, the ion intensities of the individual proteins were normalized to the total ion intensity of that MS/MS experiment to achieve a relative protein composition. The contribution of each protein was averaged over all nine MS/MS experiments (Tables 1 and 2).

[2] = test system: T2, Ab2 fibrils; experiment: as above; format: binding, human; parameters: key to Identification status of CSF protein bound: Ab2: *: Identified, but not quantified; —: Not identified in any of the samples; settings: for Relative composition of CSF proteins bound: Ab2: 4:1 w/w CSF protein:fibril
T2 construct: Two structurally distinct fibrils of the Aβ(1–40) peptide associated with AD
Procedure: as §1, §2, §3, §4, §5, §6, §7

[3] = target: T3, αSN fibrils (Homo sapiens, UniProt P37840); experiment: Fibril incubation with plasma, quantitative MS/MS of bound proteins; format: binding; settings: 50:1 w/w plasma protein:fibril
Procedure: as §1, §2, §3, §4, §5, §6, §7

[4] = test system: T2, Ab2 fibrils; experiment: as above; format: binding, human; settings: 50:1 w/w plasma protein:fibril
Procedure: as §1, §2, §3, §4, §5, §6, §7

[5] = target: T4, glucagon fibrils (Homo sapiens, UniProt P01275); experiment: Fibril incubation with CSF, quantitative MS/MS of bound proteins; format: binding; settings: 4:1 w/w CSF protein:fibril
T4 construct: fibrils of the peptide hormone glucagon
Procedure: as §1, §2, §3, §4, §5, §6, §7

[6] = test system: T5, FAS4-AD aggregates; experiment: Fibril incubation with plasma, quantitative MS/MS of bound proteins; format: binding, human; settings: 50:1 w/w plasma protein:fibril
T5 construct: aggregates of a mutated version of the FAS1-4 domain of TGFBIp
Procedure: as §1, §2, §3, §4, §5, §6, §7

[7] = target: T1, C-36 fibrils; experiment: as above; format: binding; settings: 50:1 w/w plasma protein:fibril
Procedure: as §1, §2, §3, §4, §5, §6, §7

[8] = test system: T5, FAS4-AD aggregates; experiment: Fibril incubation with CSF, quantitative MS/MS of bound proteins; format: binding, human; parameters: key to Identification status of CSF protein bound: FAS4-AD: *: Identified, but not quantified; —: Not identified in any of the samples; settings: for Relative composition of CSF proteins bound: FAS4-AD: 4:1 w/w CSF protein:fibril; for Identification status of CSF protein bound: FAS4-AD: symbol cells
Procedure: as §1, §2, §3, §4, §5, §6, §7

[9] = target: T3, αSN fibrils; experiment: as above; format: binding; parameters: key to Identification status of CSF protein bound: αSN: *: Identified, but not quantified; —: Not identified in any of the samples; settings: for Relative composition of CSF proteins bound: αSN: 4:1 w/w CSF protein:fibril
Procedure: as §1, §2, §3, §4, §5, §6, §7

[10] = target: T4, glucagon fibrils; experiment: Fibril incubation with plasma, quantitative MS/MS of bound proteins; format: binding; settings: 50:1 w/w plasma protein:fibril
Procedure: as §1, §2, §3, §4, §5, §6, §7

[11] = test system: T6, Ab1 fibrils; experiment: Fibril incubation with CSF, quantitative MS/MS of bound proteins; format: binding, human; settings: 4:1 w/w CSF protein:fibril
T6 construct: Synthetic amyloid β peptide 1–40 was purchased from Caslo Aps (Lyngby, Denmark); purchased Caslo Aps (Lyngby, Denmark); host or cells: synthetic peptide
Procedure: as §1, §2, §3, §4, §5, §6, §7

[12] = test system: T6, Ab1 fibrils; experiment: Fibril incubation with plasma, quantitative MS/MS of bound proteins; format: binding, human; settings: 50:1 w/w plasma protein:fibril
Procedure: Plasma and CSF solutions were centrifuged (40,000 g, 20 min) to remove any aggregates. The protein concentration was determined using 280 nm absorbance assuming 1 Abs = 1 mg/mL. […] Control samples (without fibril material) were prepared similarly. All samples were incubated at room temperature for one hour under gentle agitation. Fibrils and fibril-bound proteins were pelleted by centrifugation at 17,000 g for 30 minutes. The supernatant (175 μL) was removed and the aggregate was re-suspended in 175 μL PBS and pelleted again before further preparation for gel analysis and spin-filter assisted digest for quantitative MS/MS.
as §2, §3, §4, §5, §6, §7

T1 sequence (P01009 383-418 limits assumed): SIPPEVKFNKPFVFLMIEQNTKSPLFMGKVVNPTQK
T4 sequence (P01275 53-81 limits assumed): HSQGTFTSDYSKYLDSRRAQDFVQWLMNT

Clusterin: plasma/CSF protein bound to fibrils
Relative composition of CSF proteins bound: C-36 [1]: 8.6 ± 1.7 % of total protein | Relative composition of CSF proteins bound: Ab2 [2]: 6.9 ± 1.6 % of total protein | Relative composition of plasma proteins bound: αSN [3]: 1.6 ± 0.9 % of total protein | Relative composition of plasma proteins bound: Ab2 [4]: 2.2 ± 1.2 % of total protein | Relative composition of CSF proteins bound: Glucagon [5]: 2.4 ± 0.6 % of total protein | Relative composition of plasma proteins bound: FAS4-AD [6]: 7.9 ± 4.2 % of total protein | Relative composition of plasma proteins bound: C-36 [7]: 3.5 ± 0.9 % of total protein | Relative composition of CSF proteins bound: FAS4-AD [8]: 22.8 ± 11.2 % of total protein | Relative composition of CSF proteins bound: FAS4-AD ([8]; listed as clusterin): 22.8 % of total protein | Relative composition of CSF proteins bound: αSN [9]: 12.2 ± 2.9 % of total protein | Relative composition of plasma proteins bound: Glucagon [10]: 0.5 ± 0.1 % of total protein | Relative composition of CSF proteins bound: Ab1 [11]: 9.4 ± 1.0 % of total protein | Relative composition of plasma proteins bound: Ab1 [12]: 1.1 ± 0.1 % of total protein

Ig γ-1 chain C region: plasma/CSF protein bound to fibrils
Relative composition of CSF proteins bound: C-36 [1]: 1.4 ± 0.2 % of total protein | Relative composition of CSF proteins bound: Ab2 [2]: 3.1 ± 0.3 % of total protein | Relative composition of plasma proteins bound: αSN [3]: 1.9 ± 0.9 % of total protein | Relative composition of plasma proteins bound: Ab2 [4]: 1.2 ± 0.1 % of total protein | Relative composition of CSF proteins bound: Glucagon [5]: 1.4 ± 0.5 % of total protein | Relative composition of plasma proteins bound: FAS4-AD [6]: 9.5 ± 2.6 % of total protein | Relative composition of plasma proteins bound: C-36 [7]: 1.9 ± 0.2 % of total protein | Identification status of CSF protein bound: FAS4-AD [8]: * | Relative composition of CSF proteins bound: αSN [9]: 4.2 ± 0.4 % of total protein | Relative composition of plasma proteins bound: Glucagon [10]: 1.2 ± 0.2 % of total protein | Relative composition of CSF proteins bound: Ab1 [11]: 2.5 ± 0.1 % of total protein | Relative composition of plasma proteins bound: Ab1 [12]: 1.1 ± 0.1 % of total protein

Dickkopf-related protein 3: CSF protein bound to fibrils
Relative composition of CSF proteins bound: C-36 [1]: 3.9 ± 1.5 % of total protein | Relative composition of CSF proteins bound: Ab2 [2]: 5.5 ± 2.2 % of total protein | Relative composition of CSF proteins bound: Glucagon [5]: 1.5 ± 0.4 % of total protein | Identification status of CSF protein bound: FAS4-AD [8]: — | Relative composition of CSF proteins bound: αSN [9]: 10.9 ± 1.0 % of total protein | Relative composition of CSF proteins bound: Ab1 [11]: 7.2 ± 0.3 % of total protein

Apolipoprotein A-II: plasma/CSF protein bound to fibrils
Relative composition of CSF proteins bound: C-36 [1]: 0.9 ± 0.1 % of total protein | Identification status of CSF protein bound: Ab2 ([2]; symbol cells): * | Relative composition of plasma proteins bound: αSN [3]: 0.9 ± 0.3 % of total protein | Relative composition of plasma proteins bound: Ab2 [4]: 1.2 ± 0.2 % of total protein | Relative composition of CSF proteins bound: Glucagon [5]: 0.6 ± 0.2 % of total protein | Relative composition of plasma proteins bound: FAS4-AD [6]: 1.8 ± 0.2 % of total protein | Relative composition of plasma proteins bound: C-36 [7]: 1.9 ± 0.5 % of total protein | Identification status of CSF protein bound: FAS4-AD [8]: — | Identification status of CSF protein bound: αSN ([9]; symbol cells): — | Relative composition of plasma proteins bound: Glucagon [10]: 6.2 ± 0.6 % of total protein | Relative composition of CSF proteins bound: Ab1 [11]: 1.0 ± 0.3 % of total protein | Relative composition of plasma proteins bound: Ab1 [12]: 1.1 ± 0.2 % of total protein
